Experimental data from patent US20230065816A1, “METHODS FOR PREVENTING AND REVERSING OPIOID ANALGESIC TOLERANCE IN SUBJECTS WITH CHRONIC PAIN” (The Reasearch Foundation for Suny, priority 2020, published 2023).
“Also recorded” adds a separate entry of the source.

Legend:
[1] = test system: rats with spinal nerve ligation (SpNL); experiment: von Frey mechanical allodynia test, tolerance from chronic systemic morphine (s.c. morphine pellets); settings: for reversal of spinal morphine antiallodynic tolerance induced by chronic systemic morphine, single agent: CSD or S-CSD 10 μg, PP2 or PP3 300 ng, i.t. on day 8, 45 min before i.t. morphine; for prevention of antiallodynic tolerance to chronic systemic morphine, male rats / prevention of antiallodynic tolerance to chronic systemic morphine, female rats: i.t. 45 min before s.c. morphine pellet implantation on days 1, 3, 5; for prevention of antiallodynic tolerance to chronic systemic morphine, male rats: 10 μg; for prevention of antiallodynic tolerance to chronic systemic morphine, female rats: dose 6 μg or 10 μg
[2] = test system: rats with spinal nerve ligation (SpNL); experiment: von Frey mechanical allodynia test, spinal morphine tolerance from chronic i.t. morphine; settings: for reversal of spinal morphine antiallodynic tolerance by the single agent: CSD 10 μg or PP2 300 ng i.t. 45 min before i.t. morphine on day 8 or 9 of daily i.t. 15 μg morphine; for reversal of spinal morphine antiallodynic tolerance by the single agent / duration of reversal of morphine tolerance by the single agent: FIGS. 3A, 3B; for duration of reversal of morphine tolerance by the single agent: CSD 10 μg or PP2 300 ng i.t.
rats [3] = experiment: tail flick latency test, spinal morphine tolerance from chronic i.t. morphine; settings: 9 days of daily 15 μg i.t. morphine
rats [4] = experiment: tail flick latency test, tolerance from chronic systemic morphine (s.c. morphine pellets); settings: i.t. CSD with s.c. morphine pellets; FIG. 4B

With `CC(C)(C)n1nc(-c2ccc(Cl)cc2)c2c(N)ncnc21` [PP2, 3-(4-chlorophenyl) 1-(1,1-dimethylethyl)-1H-pyrazolo[3,4-d]pyrimidin-4-amine] the “duration of tolerance-reversing effect” value ([1]; CSD 10 μg or PP2 300 ng i.t. on day 8, chronic systemic morphine, FIGS. 6A, 6B) was “less than 24 hours”, the “reversal of spinal morphine antiallodynic tolerance induced by chronic systemic morphine, single agent” value ([1]; FIGS. 6A, 6B) was “essentially fully restored i.t. morphine antiallodynic action; also recorded: fully restored i.t. morphine antiallodynic effects” and the “reversal of spinal morphine antiallodynic tolerance by the single agent” value [2] was “attenuated spinal opioid antiallodynic tolerance”. The “duration of reversal of morphine tolerance by the single agent” value ([2]; chronic i.t. morphine) was “lasted for multiple days” and the “share of opioid naive i.t. morphine responsiveness restored” value ([2]; PP2 300 ng i.t. 45 min before i.t. morphine, chronic i.t. morphine, FIG. 3B) was “approximately 60%”.
In the case of “H-Arg-Gln-Ile-Lys-Ile-Trp-Phe-Gln-Asn-Arg-Arg-Met-Lys-Trp-Lys-Lys-Trp-Gly-Ille-Asp-Lys-Ala-Ser-Phe-Thr-Thr-Phe-Thr-Val-Thr-Lys-Tyr-Trp-Phe-Arg-Tyr-OH (H-RQIKIWFQNRRMKWKKWGIDKASFTTFTVTKYWFRY-OH) [S-CSD]”, the “reversal of spinal morphine antiallodynic tolerance induced by chronic systemic morphine, single agent” value ([1]; FIGS. 6A, 6B) is reported as “failed to alter antiallodynic action of i.t. morphine; also recorded: had no effect”, the “prevention of antiallodynic tolerance to chronic systemic morphine, male rats” value ([1]; FIG. 4C) is reported as “failed to alter morphine tolerance development” and the “prevention of antiallodynic tolerance to chronic systemic morphine, female rats” value ([1]; FIG. 4A) is reported as “remained minimal; also recorded: failed to alter morphine tolerance development”.
For `CN1CC[C@]23c4c5ccc(O)c4O[C@H]2[C@@H](O)C=C[C@H]3[C@H]1C5` [morphine, (5a,6a)-7,8-didehydro-4,5-epoxy-17-methylmorphinan-3,6-diol], the “i.t. morphine antiallodynia ED50, opioid naive rats” value ([1]; before pelleting, FIG. 5) was 5.5 µg, the “fold increase of i.t. morphine ED50 in tolerant vs. opioid naive rats” value ([1]; chronic systemic morphine, FIG. 5) was 3.6 fold and the “reduction of i.t. morphine antiallodynic effects by chronic systemic morphine” value ([1]; day 7 of morphine pelleting, before PP2, FIG. 6B) was “approximately 80%”. The “i.t. morphine antiallodynia ED50, chronic systemic morphine-treated (tolerant) rats” value ([1]; s.c. morphine pellets, FIG. 5) was 19.7 µg, the “analgesic effect of i.t. morphine after chronic daily i.t. morphine (tolerance), tail flick” value (rats [3]) was “lost most of its analgesic effect” and the “i.t. morphine antiallodynia ED50, morphine naive rats” value ([2]; FIG. 1B) was 3.9 µg. For the same compound, the “i.t. morphine antiallodynia ED50, morphine tolerant rats” value ([2]; after chronic daily i.t. morphine, FIG. 1B) was 13.1 µg, the “times more morphine required in tolerant than in naive rats for comparable antiallodynia” value ([2]; chronic daily i.t. morphine, FIG. 1B) was 3.4 times and the “antiallodynic responsiveness to i.t. morphine after chronic daily i.t. morphine (tolerance)” value ([2]; i.t. morphine 15 μg daily, 6 to 9 days, no CSD/PP2) was “complete loss of antiallodynic responsiveness; also recorded: lost most of its antiallodynic effectiveness”.
With “H-Arg-Gln-Ile-Lys-Ile-Trp-Phe-Gln-Asn-Arg-Arg-Met-Lys-Trp-Lys-Lys-Asp-Gly-Ile-Trp-Lys-Ala-Ser-Phe-Thr-Thr-Phe-Thr-Val-Thr-Lys-Tyr-Trp-Phe-Tyr-Arg-OH (H-RQIKIWFQNRRMKWKKDGIWKASFTTFTVTKYWFYR-OH) [CSD]” the “reversal of spinal morphine antiallodynic tolerance induced by chronic systemic morphine, single agent” value ([1]; FIGS. 6A, 6B) was “essentially fully restored i.t. morphine antiallodynic action”, the “reversal of tolerance and effect of reapplication of i.t. CSD, male rat” value ([1]; i.t. 6 μg CSD on day 9, reapplication on day 12, morphine pellets, FIG. 7 right panel) was “lasted through day 10; also recorded: again restored morphine antiallodynia” and the “prevention of antiallodynic tolerance to chronic systemic morphine, male rats” value ([1]; FIG. 4C) was “works identical in males as in females; also recorded: fully manifest”. The “prevention of antiallodynic tolerance to chronic systemic morphine, female rats” value ([1]; FIG. 4A) was “increase to cutoff in von Frey thresholds; also recorded: fully manifest”, the “unmasking of antiallodynia of on boarded morphine pellet in systemic morphine tolerant animals” value ([1]; i.t. CSD 0.33 μg, virtually no pretreatment with i.t. morphine) was “unmasked robust morphine (from on boarded morphine pellet) antiallodynia” and the “prevention of tolerance and effect of reapplication of i.t. CSD, female rats” value ([1]; i.t. CSD 6 μg before morphine pelleting, last on day 5, re-applied on day 11, FIG. 7 left panel) was “prevented morphine tolerance development; also recorded: morphine antiallodynia was fully manifest”. For the same compound, the “reversal of tolerance at lower dose of CSD” value ([1]; i.t. CSD 3, 1, or 0.33 μg, chronic systemic morphine, data not shown) was “Full reversal of tolerance development”, the “persistence of tolerance blockade after the last i.t. treatment (day 5), female rats” value ([1]; i.t. CSD on days 1, 3, 5 with s.c. morphine pellets, FIG. 4A) was 3 days and the “persistence of tolerance blockade after the last i.t. treatment (day 5), male rats” value ([1]; i.t. CSD on days 1, 3, 5 with s.c. morphine pellets, FIG. 4C) was 3 days. For the same compound, the “reversal of spinal morphine antiallodynic tolerance by the single agent” value [2] was “fully restored i.t morphine antiallodynia; also recorded: tolerance reversal was complete”, the “duration of reversal of morphine tolerance by the single agent” value ([2]; chronic i.t. morphine) was “lasted for multiple days” and the “persistence of antinociceptive tolerance blockade after the last i.t. treatment (day 5), tail flick” value (rats [4]) was 2 days.
In the case of `Nc1ncnc2c1cnn2-c1ccccc1` [PP3, 1-Phenyl-1H-pyrazolo[3,4-d]pyrimidin-4-amine], the “reversal of spinal morphine antiallodynic tolerance induced by chronic systemic morphine, single agent” value ([1]; FIGS. 6A, 6B) is reported as “failed to alter antiallodynic action of i.t. morphine; also recorded: devoid of any effect”.
